Tests used:
[1] = target: Cbl-b (36-427 aa truncated form, N-terminus Avi-tag) (Homo sapiens (Human), UniProt Q13191); assay: Cbl-b binding: TR-FRET displacement of BODIPY-FL probe
Outline: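 IC50 from loss of terbium–BODIPY-FL TR-FRET signal as compounds compete off a fluorescent Cbl-b inhibitor probe (1 uM) for 1 h at RT. Protein: N-Avi-tagged human Cbl-b 36-427 on streptavidin-terbium, 20 mM HEPES pH 7.5 buffer.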

Human primary T cells [2] = assay: T cell activation: secreted IL-2; format: cell-based; conditions: 48 hours, fold over background normalized to Compound 141A; for IL-2 1 nM: 1 nM compound; for IL-2 10 nM: 10 nM compound; for IL-2 100 nM: 100 nM compound
Procedure: (§1) Human primary T cells were isolated from commercially available frozen peripheral blood mononuclear cells (HemaCare Corporation) or from fresh LeukoPaks (Research Blood Components). T cells were isolated through depletion of non-T cells using negative selection kit according to the manufacturer's protocol (Miltenyi Biotec, Human Pan T Cell Isolation Kit, 130-096-535). Isolated cells were cultured overnight at 37° C. with 5% CO2 and plated at 1×10^5 cells per well in XVivo-15 serum-free media (Lonza, 04-418Q) into 96 well plates coated with anti-CD3 (OKT3) antibody (ThermoFisher, 16-0037-85). To coat the plates for T cell capture, anti-CD3 antibody was diluted in PBS at 10 μg/mL and 100 μl added to each well. Plates were incubated at 4° C. overnight or at 37° C. for 2 hours and washed once with PBS before use. Serial dilutions of each compound were added in duplicates to the T cells to assess their effect on T cell activation. T cells treated with 5 μg/mL of CD28 antibody (ThermoFisher, 16-0289-85) or T cells stimulated by CD3 only were used as a control. Plates were incubated with the Cbl-b inhibitors for 48 hours at 37° C. with 5% CO2, and supernatants were subsequently analyzed for levels of the activation induced secreted cytokines IL-2 or IFN-y (BD Biosciences CBA Flex Beads, 558269, 558270). T cells were additionally stained with anti-CD69 antibody (Invitrogen, 12-0699-42 which labels a T cell activation associated membrane protein to and surface expression was measured by flow cytometry (ThermoFisher Attune NxT).
(§2) To control for natural inter-donor variability in T cell responses intrinsic to using primary human donor derived cells, secreted IL-2 and IFN-y measurements for each test compound were reported as the fold increase of the compound treated levels over background (antiCD3/CD28 treatment only) normalized to the values obtained for Compound 141A. Results for compound treatment-induced changes in CD69 levels are similarly reported as the fold increase due to compound treatment over anti-CD3 stimulated background only, normalized to values obtained for Compound 141A.
Normalized T cell IL-2 responses were sorted into ranges as follows: fold over background values between 1.41 and 1.8: range “X”, between 0.80 and 1.40: range “A”, values between 0.31 and 0.79: range “B” values between 0.10 and 0.30: range “C”, values between 0.01 and 0.09: range “D.”

Human primary T cells [3] = assay: T cell activation: secreted IFN-y; format: cell-based; conditions: 48 hours, fold over background normalized to Compound 141A; for IFN-y 1 nM: 1 nM compound; for IFN-y 10 nM: 10 nM compound; for IFN-y 100 nM: 100 nM compound
Procedure: as §1, §2
Normalized T cell IFN-y responses were sorted into ranges as follows: fold over background between 1.10 and 2.00: range “A”, values between 0.31 and 1.00: range “B;” values between 0.10 and 0.30: range “C”, and values between 0.01 and 0.09: range “D.”

Human primary T cells [4] = assay: T cell activation: CD69 surface expression by flow cytometry; format: cell-based; conditions: fold over anti-CD3 stimulated background normalized to Compound 141A; for CD69 10 nM: 10 nM compound; for CD69 100 nM: 100 nM compound
Procedure: as §1, §2
Similarly, bins for normalized CD69 levels were sorted into ranges as follows: fold over background values between 1.11 and 1.6: range “X”, values between 0.81 and 1.10: range “A”; values between 0.61 and 0.80: range “B;” values between 0.30 and 0.60: range “C”.

Cbl-b (36-427 aa truncated form, N-terminus Avi-tag), sequence (Q13191 36-427): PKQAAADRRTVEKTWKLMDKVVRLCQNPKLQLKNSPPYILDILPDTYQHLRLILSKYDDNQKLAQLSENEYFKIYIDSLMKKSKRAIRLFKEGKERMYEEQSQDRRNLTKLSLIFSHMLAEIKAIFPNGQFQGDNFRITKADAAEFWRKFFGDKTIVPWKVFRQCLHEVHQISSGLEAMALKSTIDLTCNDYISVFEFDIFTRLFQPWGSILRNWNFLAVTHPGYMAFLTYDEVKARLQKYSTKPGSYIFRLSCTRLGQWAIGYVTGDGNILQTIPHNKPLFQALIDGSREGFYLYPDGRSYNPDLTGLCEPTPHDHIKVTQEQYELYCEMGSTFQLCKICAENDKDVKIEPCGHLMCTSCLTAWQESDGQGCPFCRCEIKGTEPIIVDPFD

SMILES | IC50 [1] [nM] | IL-2 1 nM (Human primary T cells [2]) | IL-2 10 nM (Human primary T cells [2]) | IL-2 100 nM (Human primary T cells [2]) | IFN-y 1 nM (Human primary T cells [3]) | IFN-y 10 nM (Human primary T cells [3]) | IFN-y 100 nM (Human primary T cells [3]) | CD69 10 nM (Human primary T cells [4]) | CD69 100 nM (Human primary T cells [4]) | CD69 1 nM (Human primary T cells [4]; 1 nM compound)
C=CC(=O)N1CCN(c2cc(C3(Cc4nncn4C)COC3)cc(N3Cc4c(cc(CN5CCC[C@H](C)C5)cc4C(F)(F)F)C3=O)n2)CC1 [Compound 121, (S)-2-(6-(4-acryloylpiperazin-1-yl)-4-(3-((4-methyl-4H-1,2,4-triazol-3-yl)methyl)oxetan-3-yl)pyridin-2-yl)-6-((3-methylpiperidin-1-yl)methyl)-4-(trifluoromethyl)isoindolin-1-one] | 20 to 100 | C (values between 0.10 and 0.30: range “C”) | C (values between 0.10 and 0.30: range “C”) | B (values between 0.31 and 0.79: range “B”) | C (values between 0.10 and 0.30: range “C”) | C (values between 0.10 and 0.30: range “C”) | B (values between 0.31 and 1.00: range “B;”) | C (values between 0.30 and 0.60: range “C”) | A (values between 0.81 and 1.10: range “A”) | 
CCNc1cc(C2(Cc3nncn3C)COC2)cc(N2Cc3c(cc(CN4CCC[C@H](CSC)C4)cc3C(F)(F)F)C2=O)n1 [Compound 111, 2-[6-(ethylamino)-4-{3-[(4-methyl-1,2,4-triazol-3-yl)methyl]oxetan-3-yl}pyridin-2-yl]-6-{[(3S)-3-[(methylsulfanyl)methyl]piperidin-1-yl]methyl}-4-(trifluoromethyl)-3H-isoindol-1-one] | 5.01 to 20 | C (values between 0.10 and 0.30: range “C”) | B (values between 0.31 and 0.79: range “B”) | B (values between 0.31 and 0.79: range “B”) | B (values between 0.31 and 1.00: range “B;”) | B (values between 0.31 and 1.00: range “B;”) | B (values between 0.31 and 1.00: range “B;”) | B (values between 0.61 and 0.80: range “B;”) | A (values between 0.81 and 1.10: range “A”) | 
Cn1cnnc1CC1(c2cc(NCCC#N)nc(N3Cc4c(cc(CN5CCN(c6nccs6)CC5)cc4C(F)(F)F)C3=O)c2)COC1.O=C(O)C(F)(F)F [Compound 186, 3-((4-(3-((4-methyl-4H-1,2,4-triazol-3-yl)methyl)oxetan-3-yl)-6-(1-oxo-6-((4-(thiazol-2-yl)piperazin-1-yl)methyl)-4-(trifluoromethyl)isoindolin-2-yl)pyridin-2-yl)amino)propanenitrile; trifluoroacetic acid] | 5.01 to 20 | D (values between 0.01 and 0.09: range “D.”) | D (values between 0.01 and 0.09: range “D.”) | D (values between 0.01 and 0.09: range “D.”) | C (values between 0.10 and 0.30: range “C”) | C (values between 0.10 and 0.30: range “C”) | B (values between 0.31 and 1.00: range “B;”) | C (values between 0.30 and 0.60: range “C”) | C (values between 0.30 and 0.60: range “C”) | C (values between 0.30 and 0.60: range “C”)
CCSc1cc(C2(Cc3nncn3C)COC2)cc(N2Cc3c(NC)cc(CN4CCC[C@H](C)C4)cc3C2=O)n1.O=CO [Compound 130, 2-[6-(ethylsulfanyl)-4-{3-[(4-methyl-1,2,4-triazol-3-yl)methyl]oxetan-3-yl}pyridin-2-yl]-4-(methylamino)-6-{[(3S)-3-methylpiperidin-1-yl]methyl}-3H-isoindol-1-one; formic acid] | 5.01 to 20 | C (values between 0.10 and 0.30: range “C”) | C (values between 0.10 and 0.30: range “C”) | B (values between 0.31 and 0.79: range “B”) | C (values between 0.10 and 0.30: range “C”) | C (values between 0.10 and 0.30: range “C”) | B (values between 0.31 and 1.00: range “B;”) | C (values between 0.30 and 0.60: range “C”) | B (values between 0.61 and 0.80: range “B;”) | 
